Consider one compound from US20230331674A1 (priority 2020, published 2023).

The target of data set [1] is mAChE (murine acetylcholinesterase) (Mus musculus (Mouse), UniProt P21836). The format is biochemical. The settings on record: screening at 10 μM; n.i. = no inhibiton. The source says: To determine the blank value (b), phosphate-buffered solution replaced the enzyme solution.
The subject of data set [2] is SH-SY5Y cells treated with Aβ(1-42). Kind of data set: Neuroprotective effect against Aβ(1-42) cytotoxicity, propidium iodide flow cytometry. The format is cell-based, human. The settings on record: 5 μM Aβ(1-42), 48 h. As to the method: SH—SY5Y cells were seeded into a 24-well culture plate (1.2×10^5/well) and next day, treated as described above. After 48 h treatment, cells were washed with pre-warmed PBS and further stained with PI solution (30 μM) for 15 min at 37° C. Cells were then analyzed for cytotoxicity by flow cytometry on FACS Calibur (BD Bioscience, San Jose, CA, USA). The percentage of PI positive cells (PI^pos) was evaluated using FlowJo software (Ashland, OR, USA) and results are presented as a relative fold increase of PI^pos corresponding vehicle treatment (DMSO control).

Another data set can be described thus: in vitro. The settings on record: human, Caco-2. The protocol:
(§1) They were grown on Transwell® culture inserts with a polycarbonate membrane (diameter, 12 mm; pore size, 0.4 μm). 50,000 cells/filter membranes were used for seeding and the medium was changed every two days. At day 18, transepithelial electrical resistance (TEER) was measured for each filter with Caco-2 cell monolayers. […] The samples were acidified by dilution with the same volume of 0.01 M HCl before fluorescence measurements.
(§2) Ringer buffer with 10 mM d-glucose or 10 mM mannitol on apical and basolateral side of the tissue, respectively, was used as an incubation saline. […] The experiment started by the addition of stock solutions of (±)-N-((1-benzylpiperidin-3-yl)methyl)-N-(2-methoxyethyl)naphthalene-2-sulfonamide hydrochloride and fluorescein in the donor compartment to provide final 100 μM donor concentration of (±)-N-((1-benzylpiperidin-3-yl)methyl)-N-(2-methoxyethyl)naphthalene-2-sulfonamide and 20 μM fluorescein. The stock solutions were added either to the apical or to the basolateral compartment to obtain bidirectional permeability measurements. Six samples were withdrawn in 20 min intervals. Each time 300 μl was taken from the 1500 μL basolateral acceptor compartment and 100 μL from the 500 μL apical acceptor compartment. These volumes were immediately replaced by the appropriate fresh incubation saline. The concentrations of (±)-N-((1-benzylpiperidin-3-yl)methyl)-N-(2-methoxyethyl)naphthalene-2-sulfonamide in the samples were determined by HPLC-UV immediately after the experiment.

For a further data set, the system named is Caco-2 cell monolayers. Kind of data set: in vitro. As to the method:
as §1, §2

The nature of data set [3]: Plasma protein binding, equilibrium dialysis. It is filed as in vitro ADME. The settings on record: pH 7.4, human plasma, 37° C. As to the method:
The equilibrium dialysis technique was used to separate the fraction of the bound to human plasma protein. The assay was performed in a 96-well format in a dialysis block constructed from Teflon to minimize the unspecific binding (Banker M. J. et al. J. Pharm. Sci. 2003, 92, 967-974). Plasma from human was used as the default protein containing matrix. […] Acebutolol, quinidine and warfarin were tested in each assay as reference compounds, which yield protein binding that represent low, medium and high bindings to human plasma proteins, respectively. The dialysate compartment was loaded with the phosphate buffered saline (PBS, pH 7.4), and the sample side was loaded with equal volume of the spiked protein matrix. The dialysis plate was then sealed and incubated at 37° C. for 4 h. A control sample (n=2) was prepared from the spiked protein matrix in the same manner as the assay sample (without dialysis). The control sample served as the basis for the recovery determination. After the incubation, samples were taken from each compartment, diluted with phosphate buffer followed by addition of acetonitrile and centrifugation. The supernatants were then used for HPLC-MS/MS analysis using selected reaction monitoring. […]
The recovery determination serves as an indicator of reliability of the calculated protein binding value. […]
(In general: Equilibrium dialysis compares concentrations on both sides of a semipermeable membrane.)

A further data set is described as follows: Plasma stability. The settings on record: human, 37° C., 2 h incubation, read-out: In vitro half-life in human plasma. The format is in vitro ADME. As to the method: Propoxycaine and propantheline were tested as reference compounds simultaneously in each assay. The incubation was performed in a 37° C. water bath for 2 h. An aliquot of the incubation mixture was transferred to acetonitrile at 0, 0.5, 1, 1.5 and 2 h, respectively. Samples were then mixed and centrifuged. Supernatants were used for HPLC-MS/MS analysis using selected reaction monitoring, and peak areas were recorded for each analyte. The HPLC conditions consisted of a binary LC pump with autosampler, a C18 column (2×20 mm), and gradient elution. The area of precursor compound remaining after each time points relative to the amount remaining at time zero, expressed as percent, is calculated. Subsequently, the half-life (t1/2) was estimated from the slope of the initial linear range of the logarithmic curve of the compound remaining (%) versus time, assuming first order kinetics.

Data set [4] can be described thus: Metabolic stability in cryopreserved hepatocytes. It is filed as in vitro ADME. The settings on record: both sexes, pH 7.3, human hepatocytes. As to the method:
Cryopreserved hepatocytes (mixed gender and pool of 10 or more) were thawed, washed, and resuspended in Krebs-Heinslet buffer (pH 7.3). […] The reaction was stopped by adding acetonitrile into the incubation mixture. Samples were then mixed, transferred completely to another 96-well plate, and centrifuged. Supernatants were used for HPLC-MS/MS analysis. As reference substances, four compounds were tested in each assay. Propranolol is relatively stable, whereas flurazepam, naloxone and 7-hydroxy-4-trifluoromethylcoumarin (HFC) are readily metabolized in human hepatocytes. In the HPLC-MS/MS analysis peak areas corresponding to the test compounds were recorded. Metabolic stability, expressed as percentage of the parent compound remaining, was calculated by comparing the peak area of the compound at the time point relative to that at time 0. The half-life (t1/2) was estimated from the slope of the initial linear range of the logarithmic curve of the compound remaining (%) versus time, assuming first order kinetics. The apparent intrinsic clearance (Clint in μL/min/million cells) was calculated from the half-life according to the following formula:
Clint=0.693/(t1/2×million cells/μL) (5).

The subject of another data set is SH-SY5Y cells. The data set is described as follows: Cell viability assay (MTS) in SH-SY5Y cells. The settings on record: 48 h.

Bounds are passed on as bounds.

What is called Papp A→B is the apparent permeability from the apical to the basolateral side of a cell layer. A high value points to ready permeation. One may read the Papp B→A as the apparent permeability from the basolateral to the apical side of a cell layer. In general, fraction unbound refers to the share of the substance not bound to proteins or other matrix. The low end stands for little free substance, the high end for much free substance. The term half-life denotes the time in which the quantity being followed falls by half. One may read the hepatocyte CLint as the capacity of the preparation to metabolise the compound, expressed as a volume cleared per time.

mAChE (murine acetylcholinesterase), sequence (P21836 32-614): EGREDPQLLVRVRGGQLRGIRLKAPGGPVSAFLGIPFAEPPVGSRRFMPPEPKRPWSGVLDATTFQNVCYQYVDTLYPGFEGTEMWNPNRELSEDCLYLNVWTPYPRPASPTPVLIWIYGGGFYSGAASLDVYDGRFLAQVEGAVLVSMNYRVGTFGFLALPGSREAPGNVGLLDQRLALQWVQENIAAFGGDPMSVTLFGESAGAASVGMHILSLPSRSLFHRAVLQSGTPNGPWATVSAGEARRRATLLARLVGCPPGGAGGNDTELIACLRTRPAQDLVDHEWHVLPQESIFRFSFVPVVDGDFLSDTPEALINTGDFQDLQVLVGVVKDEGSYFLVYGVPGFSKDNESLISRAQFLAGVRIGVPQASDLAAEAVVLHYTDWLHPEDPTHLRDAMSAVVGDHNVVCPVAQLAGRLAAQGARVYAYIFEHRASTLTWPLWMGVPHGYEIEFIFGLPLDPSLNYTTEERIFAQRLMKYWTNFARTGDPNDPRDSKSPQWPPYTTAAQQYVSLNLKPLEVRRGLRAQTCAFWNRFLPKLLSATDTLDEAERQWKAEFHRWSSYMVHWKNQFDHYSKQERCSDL

For `COCCN(CC1CCCN(Cc2ccccc2)C1)S(=O)(=O)c1ccc2ccccc2c1` (racemic) [(±)-N-((1-benzylpiperidin-3-yl)methyl)-N-(2-methoxyethyl)naphthalene-2-sulfonamide], in data set [1], the “IC50 + STD (μM) or % inhibition at 10 μM mAChE” value was “n.i”. Further, the “Neuroprotective effect against Aβ(1-42) toxicity” value in data set [2] (compound 1-10 μM) is on record as “clear dose-response neuroprotective effect”. Also, in data set [2] (compound at 10 μM), the “Effect on Aβ(1-42)-induced cell death” value is “reversed Aβ(1-42)-induced cell death”. Also, the Papp A→B at 120 min, 100 μM in the data set “in vitro” was 30 ± 10.7 ×10⁻⁶ cm/s. Besides, in the data set “in vitro”, the Papp B→A at 120 min, 100 μM worked out at 29.1 ± 2.9 ×10⁻⁶ cm/s. The “Permeability class according to the biopharmaceutical classification system” value with Caco-2 cell monolayers was “high”. In data set [3], this compound gave a fraction unbound at 4 h, 10 μM of 0.04. Further, the half-life at 1 μM was greater than 120 min in “Plasma stability” and 54 min in data set [4] (0.7 million viable cells per mL, read-out: In vitro half-life in cryopreserved hepatocytes). Moreover, the intrinsic clearance (hepatocyte CLint) at 1 μM in data set [4] (read-out: Hepatocyte clearance (Clint)) was 18.2 µL/min/1e6 cells. Moreover, in the data set with SH-SY5Y cells, the LD50 was found to be 31.40 µM.
